Target: T1, Acetolactate synthase, chloroplastic (Arabidopsis thaliana, UniProt P17597)
T1 sequence (P17597 whole entry): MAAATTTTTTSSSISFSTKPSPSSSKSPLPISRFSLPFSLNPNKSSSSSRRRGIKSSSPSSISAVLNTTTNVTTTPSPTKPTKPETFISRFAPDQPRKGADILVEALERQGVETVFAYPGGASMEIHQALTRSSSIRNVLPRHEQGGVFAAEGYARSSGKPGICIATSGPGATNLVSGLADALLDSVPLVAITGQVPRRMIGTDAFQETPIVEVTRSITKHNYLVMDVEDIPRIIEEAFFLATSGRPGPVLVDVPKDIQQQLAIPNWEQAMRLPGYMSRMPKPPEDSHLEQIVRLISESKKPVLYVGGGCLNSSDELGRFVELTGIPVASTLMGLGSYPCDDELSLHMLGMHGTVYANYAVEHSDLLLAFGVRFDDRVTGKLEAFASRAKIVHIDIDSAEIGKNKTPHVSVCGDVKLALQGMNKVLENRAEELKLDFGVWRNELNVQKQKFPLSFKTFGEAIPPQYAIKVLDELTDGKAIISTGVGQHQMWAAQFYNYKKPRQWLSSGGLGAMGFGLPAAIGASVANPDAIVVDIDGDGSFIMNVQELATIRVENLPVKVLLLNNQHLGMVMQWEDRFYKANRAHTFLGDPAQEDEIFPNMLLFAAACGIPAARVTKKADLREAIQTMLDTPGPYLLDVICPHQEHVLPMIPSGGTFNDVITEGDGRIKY
Assay: Inhibitory activity against Acetolactate synthase (ALS) enzyme by using the rape-root growth method
Settings: not given

IC50	SMILES
16.04 p.p.m.	Cc1cccc(C(=O)OCn2ccc(=O)[nH]c2=O)c1
0.000111 M l-1	COc1cc(Cl)nc(NS(=O)(=O)c2ccc(F)cc2)n1
0.000287 M l-1	Cc1ccnc(NS(=O)(=O)c2ccccc2[N+](=O)[O-])n1
> 100 p.p.m.	COc1ccc(C(=O)OCn2ccc(=O)[nH]c2=O)cc1
0.000152 M l-1	Cc1ccc(NS(=O)(=O)c2ccc(F)cc2)nc1
51.29 p.p.m.	O=C(OCn1ccc(=O)[nH]c1=O)c1ccc(Cl)cc1
55.38 p.p.m.	O=C(OCn1ccc(=O)[nH]c1=O)c1ccc(Br)cc1
> 100 p.p.m.	O=C(OCn1ccc(=O)[nH]c1=O)c1c(Cl)cc(C(F)(F)F)cc1Cl
> 0.000309 M l-1	Cc1cnc(NS(=O)(=O)c2cc(Cl)ccc2Cl)s1
55.36 p.p.m.	O=C(OCn1ccc(=O)[nH]c1=O)c1ccccc1
> 100 p.p.m.	COc1ccccc1C(=O)OCn1ccc(=O)[nH]c1=O
> 100 p.p.m.	O=C(OCn1ccc(=O)[nH]c1=O)c1ccc([N+](=O)[O-])cc1
55.86 p.p.m.	O=C(OCn1ccc(=O)[nH]c1=O)c1ccc(F)cc1
> 100 p.p.m.	O=C(OCn1ccc(=O)[nH]c1=O)c1ccc(I)cc1

Same assay, conditions: read-out: IC50

IC50	SMILES
84.7 µM	O=S(=O)(Nc1nccs1)c1cc(Cl)ccc1Cl
58.9 µM	Cc1ccnc(NS(=O)(=O)c2ccc(Br)cc2)n1
38.9 µM	Cc1ccnc(NS(=O)(=O)c2ccc(F)cc2)n1
97.2 µM	Cc1ccnc(NS(=O)(=O)c2cc(Cl)ccc2Cl)n1
33 µM	Cc1cc(C)nc(NS(=O)(=O)c2cc(Cl)ccc2Cl)n1
